Experimental data taken from ChEMBL document CHEMBL1201862, “PubChem BioAssay data set” (2004).
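Values below derive from 48-hour exposures of cells grown in 96-well plates, with endpoints linearly interpolated between the two concentrations bracketing the appropriate inhibition level. At the GI50, growth is halved.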 Calls of active or inactive are those of the source. No stated cut-off is given here; in the data, active = GI50 up to about 1.1 µM and inactive = higher.

Assays:
Test in all cases: DTP human tumour cell line panel, 48 h
SF-268 = system: SF-268
SN12C = system: SN12C
MOLT-4 = system: MOLT-4
RXF 393 = system: RXF 393
CCRF-CEM = system: CCRF-CEM
K562 = system: K562
PC-3 = system: PC-3
Malme-3M = system: Malme-3M
DU-145 = system: DU-145
SNB-19 = system: SNB-19
786-0 = system: 786-0
RPMI-8226 = system: RPMI-8226
UACC-257 = system: UACC-257
ACHN = system: ACHN
BT-549 = system: BT-549
OVCAR-3 = system: OVCAR-3
DLD-1 = system: DLD-1
MDA-N = system: MDA-N
U-251 = system: U-251
A549 = system: A549

Measured: GI50

N#CC(NNC(=O)Cc1ccccc1)c1c(O)ccc2ccccc12 (stereo not given)
inactive: SF-268 3.45 µM | SN12C 7.93 µM | MOLT-4 2.23 µM | RXF 393 7 µM | CCRF-CEM 1.2 µM | K562 3.69 µM | PC-3 5.33 µM | Malme-3M 4.4 µM | DU-145 10.2 µM | SNB-19 9.79 µM | 786-0 4.6 µM | RPMI-8226 3.63 µM | UACC-257 3.59 µM | ACHN 3.4 µM | BT-549 1.73 µM | OVCAR-3 2.99 µM | DLD-1 3.96 µM | MDA-N 7.5 µM | U-251 3.72 µM | A549 5.51 µM
